Results reported in patent publication US10308689B2, “Dengue virus (DV) polypeptide sequences, T cell epitopes and methods and uses thereof” (LA JOLLA INSTITUTE FOR ALLERGY AND IMMUNOLOGY, priority 2010, dated 2019).

System: PBMC of healthy adult blood donors from Colombo, Sri Lanka
Experiment: Ex vivo IFNγ ELISPOT, HLA-matched PBMC of Sri Lankan blood donors
Type: cell-based, human
Design: Total Response per epitope: unit not given here
Settings: for # donors responded: number of donors responding to the epitope; for T cell response [SFC]: ex vivo IFNγ SFC/10^6 PBMC; for # of responders: responding donors, HLA allele(s)
[1] = IFNγ ELISPOT response summed over responding donors, per epitope
[2] = HLA-matched PBMC, proteome-wide screen

Row | SMILES | Total Response per epitope [1] | # donors responded [2] | T cell response [SFC] (per epitope) | # of responders | # donors responded (HLA allele, supertype and serotype) | Total Response per epitope (summed IFNγ ELISPOT response per epitope, HLA allele and serotype as given)
1 | CC(C)C[C@H](N)C(=O)N1CCC[C@H]1C(=O)N[C@@H](CCC(=O)O)C(=O)N[C@@H](CCC(=O)O)C(=O)N[C@@H](CCC(N)=O)C(=O)N[C@@H](CC(=O)O)C(=O)N[C@@H](CCC(N)=O)C(=O)N[C@@H](CC(N)=O)C(=O)N[C@@H](Cc1ccc(O)cc1)C(=O)O | 1166.7 | 5 | – | – | – | –
2 | CC(C)C[C@H](NC(=O)[C@H](CC(C)C)NC(=O)[C@H](CC(C)C)NC(=O)[C@@H](NC(=O)[C@H](CCC(=O)O)NC(=O)[C@H](CC(C)C)NC(=O)[C@@H](NC(=O)[C@H](CCC(=O)O)NC(=O)[C@@H]1CCCN1C(=O)[C@@H](N)CC(C)C)[C@@H](C)O)[C@@H](C)O)C(=O)O | 296.7 | 4 | – | – | – | –
3 | CSCC[C@H](NC(=O)[C@H](Cc1ccccc1)NC(=O)[C@@H](NC(=O)[C@@H]1CCCN1C(=O)[C@@H](N)CC(C)C)[C@@H](C)O)C(=O)N[C@H](C(=O)N[C@@H](CCC(N)=O)C(=O)N[C@@H](CCCCN)C(=O)N[C@@H](C)C(=O)N[C@@H](CCCNC(=N)N)C(=O)O)[C@@H](C)O | 1263.3 | 8 | – | – | – | –
4 | CC[C@H](C)[C@H](NC(=O)[C@H](Cc1ccccc1)NC(=O)[C@H](C)NC(=O)[C@@H](N)CCSC)C(=O)N[C@@H](C)C(=O)N[C@@H](Cc1ccccc1)C(=O)N[C@@H](CC(C)C)C(=O)N[C@@H](CCCNC(=N)N)C(=O)N[C@@H](Cc1ccccc1)C(=O)O | 146.7 | 2 | – | – | – | –
5 | CC[C@H](C)[C@H](NC(=O)[C@H](CC(N)=O)NC(=O)[C@H](C)NC(=O)[C@@H](N)CCSC)C(=O)N[C@@H](Cc1ccccc1)C(=O)N[C@@H](CCCNC(=N)N)C(=O)NCC(=O)N[C@@H](CO)C(=O)N[C@@H](Cc1ccc(O)cc1)C(=O)O | 821.7 | 5 | – | – | – | –
6 | CC[C@H](C)[C@H](NC(=O)[C@H](CC(C)C)NC(=O)[C@H](C)NC(=O)[C@H](CC(C)C)NC(=O)[C@H](CC(C)C)NC(=O)[C@@H](N)CCSC)C(=O)N[C@@H](C)C(=O)N[C@H](C(=O)N[C@@H](CC(C)C)C(=O)O)C(C)C | 81.7 | 1 | – | – | – | –
7 | CC[C@H](C)[C@H](NC(=O)[C@H](CC(C)C)NC(=O)[C@H](CC(C)C)NC(=O)[C@@H](N)CCSC)C(=O)N[C@@H](CC(C)C)C(=O)N[C@@H](CS)C(=O)N[C@H](C(=O)N[C@H](C(=O)N[C@@H](CCC(N)=O)C(=O)N[C@H](C(=O)O)C(C)C)[C@@H](C)O)C(C)C | 43.3 | 1 | – | – | – | –
8 | CSCC[C@H](NC(=O)[C@H](CO)NC(=O)[C@@H]1CCCN1C(=O)[C@@H](N)CCSC)C(=O)N[C@@H](CCCCN)C(=O)N[C@@H](CCCNC(=N)N)C(=O)N[C@@H](Cc1ccccc1)C(=O)N[C@@H](CCCNC(=N)N)C(=O)N[C@@H](CCCNC(=N)N)C(=O)N[C@@H](CCC(=O)O)C(=O)O | 1336.7 | 5 | – | – | – | –
9 | CC[C@H](C)[C@H](NC(=O)[C@@H](NC(=O)[C@H](CO)NC(=O)[C@@H]1CCCN1C(=O)[C@@H](N)CCSC)C(C)C)C(=O)N[C@@H](CCC(=O)O)C(=O)N[C@@H](CCCCN)C(=O)N[C@@H](CCSC)C(=O)N[C@@H](CCC(=O)O)C(=O)N[C@H](C(=O)O)[C@@H](C)O | 783.3 | 2 | – | – | – | –
10 | CSCC[C@H](N)C(=O)N1CCC[C@H]1C(=O)N[C@H](C(=O)N[C@H](C(=O)N[C@@H](Cc1c[nH]cn1)C(=O)N[C@@H](CO)C(=O)N[C@@H](CO)C(=O)N[C@@H](C)C(=O)N[C@@H](C)C(=O)N[C@@H](CCC(N)=O)C(=O)O)[C@@H](C)O)C(C)C | 183.3 | 2 | – | – | – | –
11 | CSCC[C@H](NC(=O)[C@@H](NC(=O)[C@H](CCCNC(=N)N)NC(=O)CNC(=O)[C@H](CC(C)C)NC(=O)[C@H](CC(=O)O)NC(=O)[C@H](CCCNC(=N)N)NC(=O)[C@H](Cc1ccccc1)NC(=O)[C@H](CO)NC(=O)[C@@H](N)CCSC)C(C)C)C(=O)O | 3250.0 | 8 | 3250 SFC | 8 | – | –
12 | CSCC[C@H](NC(=O)[C@H](CO)NC(=O)[C@H](Cc1ccc(O)cc1)NC(=O)[C@H](CO)NC(=O)[C@@H](N)CCSC)C(=O)N[C@@H](CS)C(=O)N[C@H](C(=O)NCC(=O)N[C@@H](CCCCN)C(=O)N[C@@H](Cc1ccccc1)C(=O)O)[C@@H](C)O | 2553.3 | 6 | 2553 SFC | 6 | – | –
13 | CSCC[C@H](NC(=O)[C@@H](NC(=O)[C@H](Cc1ccc(O)cc1)NC(=O)[C@H](CO)NC(=O)[C@@H](N)CCSC)[C@@H](C)O)C(=O)N[C@@H](CS)C(=O)N[C@@H](CO)C(=O)NCC(=O)N[C@@H](CCCCN)C(=O)O | 23.3 | 1 | – | – | – | –
14 | CC[C@H](C)[C@H](NC(=O)[C@H](Cc1ccc(O)cc1)NC(=O)CNC(=O)[C@H](CCCNC(=N)N)NC(=O)[C@H](C)NC(=O)[C@H](C)NC(=O)[C@@H](NC(=O)[C@H](CO)NC(=O)[C@H](C)NC(=O)[C@@H]1CCCN1)[C@@H](C)CC)C(=O)O | 611.7 | 2 | – | – | – | –
15 | C[C@H](NC(=O)[C@H](Cc1c[nH]c2ccccc12)NC(=O)[C@@H](NC(=O)[C@H](CCCNC(=N)N)NC(=O)[C@H](Cc1ccc(O)cc1)NC(=O)[C@@H]1CCCN1C(=O)[C@H](CC(N)=O)NC(=O)[C@H](CCC(=O)O)NC(=O)[C@@H](N)CCC(N)=O)[C@@H](C)O)C(=O)N[C@@H](Cc1ccc(O)cc1)C(=O)O | 265.0 | 1 | – | – | – | –
16 | CC(C)[C@H](NC(=O)CNC(=O)[C@H](CO)NC(=O)[C@@H](N)CCC(N)=O)C(=O)N[C@@H](CC(=O)O)C(=O)N[C@H](C(=O)N[C@@H](Cc1ccccc1)C(=O)N[C@@H](Cc1ccccc1)C(=O)N[C@H](C(=O)N1CCC[C@H]1C(=O)O)[C@@H](C)O)C(C)C | 103.3 | 1 | – | – | – | –
17 | CC(C)C[C@H](NC(=O)[C@H](CO)NC(=O)CNC(=O)[C@H](CS)NC(=O)[C@H](Cc1c[nH]c2ccccc12)NC(=O)[C@H](CCC(N)=O)NC(=O)[C@H](CC(=O)O)NC(=O)[C@H](CCC(=O)O)NC(=O)[C@@H](N)CCCNC(=N)N)C(=O)O | 48.3 | 1 | – | – | – | –
18 | CSCC[C@H](NC(=O)[C@H](Cc1ccc(O)cc1)NC(=O)[C@@H](N)CCCNC(=N)N)C(=O)NCC(=O)N[C@@H](CCC(=O)O)C(=O)N[C@@H](CC(=O)O)C(=O)NCC(=O)N[C@@H](CS)C(=O)N[C@@H](Cc1c[nH]c2ccccc12)C(=O)N[C@@H](Cc1ccc(O)cc1)C(=O)O | 66.7 | 1 | – | – | – | –
19 | CC[C@H](C)[C@H](NC(=O)[C@H](CCC(=O)O)NC(=O)[C@H](Cc1ccccc1)NC(=O)[C@@H]1CCCN1C(=O)[C@@H](NC(=O)[C@H](CCCCN)NC(=O)[C@H](CS)NC(=O)[C@@H]1CCCN1C(=O)[C@@H](N)CO)[C@@H](C)CC)C(=O)N[C@@H](CCSC)C(=O)O | 1156.0 | 5 | – | – | – | –
20 | CC[C@H](C)[C@H](NC(=O)[C@@H](NC(=O)[C@@H](NC(=O)[C@H](CC(N)=O)NC(=O)[C@H](Cc1c[nH]c2ccccc12)NC(=O)[C@H](Cc1ccccc1)NC(=O)[C@H](CCCCN)NC(=O)CNC(=O)[C@@H]1CCCN1C(=O)[C@@H](N)CO)[C@@H](C)O)[C@@H](C)O)C(=O)O | 826.7 | 3 | – | – | – | –
21 | CC[C@H](C)[C@H](NC(=O)[C@@H](NC(=O)[C@@H]1CCCN1C(=O)[C@@H](N)CO)[C@@H](C)CC)C(=O)N[C@@H](CC(N)=O)C(=O)N[C@@H](CCCNC(=N)N)C(=O)N[C@@H](CCC(=O)O)C(=O)NCC(=O)N[C@@H](CCCCN)C(=O)N[C@H](C(=O)O)C(C)C | 106.7 | 1 | – | – | – | –
22 | CC[C@H](C)[C@H](NC(=O)[C@H](CO)NC(=O)[C@H](CC(C)C)NC(=O)[C@@H](NC(=O)[C@@H]1CCCN1C(=O)[C@@H](N)CO)[C@@H](C)CC)C(=O)N[C@H](C(=O)N[C@H](C(=O)N[C@@H](CO)C(=O)N[C@@H](CCC(=O)O)C(=O)O)[C@@H](C)CC)[C@@H](C)O | 1068.3 | 6 | – | – | – | –
23 | C[C@H](NC(=O)[C@H](CCCNC(=N)N)NC(=O)CNC(=O)CNC(=O)[C@H](C)NC(=O)[C@H](CCC(=O)O)NC(=O)[C@H](C)NC(=O)[C@@H](N)[C@@H](C)O)C(=O)N[C@@H](Cc1ccc(O)cc1)C(=O)O | 371.7 | 4 | – | – | – | –
24 | CC(C)C[C@H](NC(=O)[C@H](CC(C)C)NC(=O)[C@@H](NC(=O)[C@H](C)NC(=O)[C@H](C)NC(=O)[C@@H](NC(=O)[C@H](CC(C)C)NC(=O)[C@@H](N)[C@@H](C)O)[C@@H](C)O)C(C)C)C(=O)N[C@@H](CC(C)C)C(=O)N[C@H](C(=O)O)C(C)C | 66.7 | 1 | – | – | – | –
25 | CC(C)[C@H](NC(=O)[C@H](CCCNC(=N)N)NC(=O)[C@H](CCC(N)=O)NC(=O)[C@H](CCC(N)=O)NC(=O)CNC(=O)[C@H](Cc1ccccc1)NC(=O)[C@@H]1CCCN1C(=O)[C@@H](N)[C@@H](C)O)C(=O)N[C@@H](Cc1ccccc1)C(=O)O | – | – | – | – | 3 | 438.3
26 | CSCC[C@H](NC(=O)[C@H](Cc1ccc(O)cc1)NC(=O)[C@@H]1CCCN1C(=O)[C@H](CC(N)=O)NC(=O)[C@H](CC(C)C)NC(=O)[C@@H](N)C(C)C)C(=O)N1CCC[C@H]1C(=O)N[C@@H](CO)C(=O)N[C@H](C(=O)O)C(C)C | 41.7 | 1 | – | – | – | –
27 | CSCC[C@H](NC(=O)[C@H](CC(C)C)NC(=O)[C@H](CO)NC(=O)[C@H](Cc1c[nH]c2ccccc12)NC(=O)[C@H](CCSC)NC(=O)[C@H](CCC(N)=O)NC(=O)[C@H](C)NC(=O)[C@@H](N)Cc1ccc(O)cc1)C(=O)N[C@@H](Cc1ccc(O)cc1)C(=O)O | 38.3 | 1 | – | – | – | –
28 | CSCC[C@H](NC(=O)[C@H](CCC(N)=O)NC(=O)[C@H](C)NC(=O)[C@@H](N)Cc1ccc(O)cc1)C(=O)N[C@@H](Cc1c[nH]c2ccccc12)C(=O)N[C@@H](CO)C(=O)N[C@@H](CC(C)C)C(=O)N[C@@H](CCSC)C(=O)N[C@@H](Cc1ccc(O)cc1)C(=O)N[C@@H](Cc1ccccc1)C(=O)O | 33.3 | 1 | – | – | – | –
